Experimental data as given in patent publication US20010051652A1, “Method of treating paralysis of the extremities caused by cerebral infarction” (Ajinomoto Co., Inc., priority 1999, published 2001).

Legend:
male Wister rats [1] = test: Adduction/pronation of the left upper limb after middle cerebral artery ischemia-reperfusion; type: in vivo, rat; conditions: for Adduction/pronation, during ischemia (rats affected/total): baseline before melatonin administration
From the text: (§1) Eight to ten-week-old male Wister rats weighing of 250 to 300 g were used. Under halothane anesthesia, a 24 G (24 gauge) plug was inserted from a right external carotid artery of each rat so as to arrive to a starting site of its middle cerebral artery of the circle of Willis through its internal carotid artery. Immediately, the anesthesia was stopped, and the rat was dehypnotized. It was confirmed that the rat rotated clockwise, had ischemia, and had paralysis of its left upper limb. After one hour, the plug was removed from the rat under halothane anesthesia, and the blood flow was thereby reperfused. In the melatonin administration group, 1 ml of a physiological saline solution containing 6 mg/kg of melatonin was injected using a probe into the stomach of each rat each day for 10 days starting 24 hours after the reperfusion. In the control group, 1 ml of a physiological saline solution was similarly injected into each rat. After 19 days, the presence of adduction/pronation of the left upper limb and the clockwise rotation were determined for each rat. To assess the adduction/pronation of the left upper limb, each rat was hung via its tail, and the movement of the left upper limb was observed. If the rat could not voluntarily move the left upper limb, and had paralysis of the left upper limb, the left upper limb was considered to show adduction/pronation. In an experiment similar to that as described in Example 1, the adduction/pronation of the left upper limb and the clockwise rotation were determined 11 days after the ischemic incidence.

male Wister rats [2] = test: Clockwise rotation after middle cerebral artery ischemia-reperfusion; type: in vivo, rat; conditions: for Clockwise rotation, during ischemia (rats affected/total): baseline before melatonin administration
From the text: as §1, with “clockwise rotation,” for “adduction/pronation of the left upper limb,”, “placed on a round plate 2 m in diameter for 5 minutes.” for “hung via its tail, and the movement of the left upper limb was observed.”, “rat” for “rat could not voluntarily move the left upper limb, and”, “it rotated clockwise.” for “the left upper limb was considered to show adduction/pronation.”

male Wister rats [3] = test: Area of the cerebral infarcted lesion; type: in vivo, rat; conditions: Example 3; rats of Example 2, after 11 days; section showing maximum lesion
Method: Using the rats from the experiment of Example 2, the area of the cerebral infarcted lesion in each rat after 11 days was determined. The area of the cerebral infarcted lesion was determined by preparing a consecutive section of 50 μm from a cerebral infarcted region of about 3 mm and subjecting the section showing a maximum lesion to the NIH measurement program to determine the area of the maximum lesion.

[4] = cited from earlier work
CAl hippocampal neurons = conditions: intraperitoneally administered, especially prior to cerebral ischemia or during reperfusion; cited from earlier work
[5] = Example 1, 6 mg/kg into the stomach each day for 10 days starting 24 hours after reperfusion
[6] = Example 2, experiment similar to Example 1

COc1ccc2[nH]cc(CCNC(C)=O)c2c1 [Melatonin, N-[2-(5-methoxy-1H-indol-3-yl)ethyl]acetamide]
Adduction/pronation, 19 days after ischemia (rats affected/total) (male Wister rats [1]; [5]): 1/4
Adduction/pronation, during ischemia (rats affected/total) (male Wister rats [1]; Example 1): 4/4
Adduction/pronation, during ischemia (rats affected/total) (male Wister rats [1]; Example 2): 7/7
Adduction/pronation, 11 days after ischemia (rats affected/total) (male Wister rats [1]; [6]): 3/7
Clockwise rotation, 19 days after ischemia (rats affected/total) (male Wister rats [2]; [5]): 1/4
Clockwise rotation, during ischemia (rats affected/total) (male Wister rats [2]; Example 1): 4/4
Clockwise rotation, during ischemia (rats affected/total) (male Wister rats [2]; Example 2): 7/7
Clockwise rotation, 11 days after ischemia (rats affected/total) (male Wister rats [2]; [6]): 0/7
Area of the infarcted lesion, cerebral cortex (male Wister rats [3]): 5.47 mm^2
Area of the infarcted lesion, striatum (male Wister rats [3]): 7.15 mm^2
passage into the brain ([4]; intravenously administered): pass into the brain
passage through the blood-brain barrier ([4]; orally administered): passes through the blood-brain barrier
protection of CAl hippocampal neurons against ischemic injury (CAl hippocampal neurons): protects CAl hippocampal neurons against ischemic injury
